According to ChEMBL document CHEMBL1153530, “Pursuing aldose reductase inhibitors through in situ cross-docking and similarity-based virtual screening” (J Med Chem, 2009):

What follows are compounds tested against Aldo-keto reductase family 1 member B1 (Rattus norvegicus, UniProt P07943) (assay: Inhibition of ALR2 from Sprague-Dawley albino rat lens extract by spectrophotometrically).

Compound | IC50 [µM]
O=S(=O)(Oc1ccc2nonc2c1)c1ccc(Cl)s1 | 35.6
O=C(O)C(Cc1ccc([N+](=O)[O-])cc1)NS(=O)(=O)c1ccccc1 (stereo unspecified) | 107
CN(C)C(=O)Oc1ccc2nnc3ccnn3c2c1 | 38.7
O=C(O)[C@H]1Cc2ccccc2N1C(=O)OCc1ccccc1 | 41.4
COc1cccc2c1c(NC(=O)CSCC(=O)O)nn2C | 77.6
N#CC(C#N)=CNc1ccc(S(=O)(=O)c2ccc(NC=C(C#N)C#N)cc2)cc1 | 52.7
O=C(O)[C@@H]1CSCN1C(=O)OCC1c2ccccc2-c2ccccc21 | 3.92
Cc1ccc(S(=O)(=O)Oc2c(Cc3ccccc3)c(=O)n(C)c3ccccc23)cc1 | 31.1
O=[N+]([O-])c1c(Sc2ccccc2)sc(Sc2ccccc2)c1[N+](=O)[O-] | 48.1
O=C(O)C[C@@H](CC(=O)Nc1ccc2ccccc2n1)c1ccccc1 | 85.3
O=C(O)CCCc1nc(-c2cnc3n(c2=O)CCS3)no1 | 1.19
